Measurements taken from article PMC7551886, “Antitumour Effects of Astaxanthin and Adonixanthin on Glioblastoma” (Marine Drugs, 2020).

Tests used:
GL261 cells = experiment: BrdU cell proliferation assay; type: cell-based, mouse; settings: GL261, 10 µM treatment for 72 h; control group 60.56 ± 1.40%
Description: GL261 cells were seeded onto 96-well plates at a density of 2 × 10^3 cells/well with DMEM supplemented with 10% FBS and then incubated for 24 h, after which the culture medium was changed to DMEM containing 10% FBS. Then, astaxanthin, adonixanthin, or temozolomide (Tokyo Chemical Industry Co., Ltd., Tokyo, Japan) were added to the culture. After 72 h of culture, the culture medium was changed to DMEM containing 10% FBS and treated with BrdU at 10 µM for 3 h. After that, immunocytochemistry was performed according to the protocol of anti-BrdU antibody (abcam, ab6326).

MMP-2 = experiment: Immunoblotting, MMP-2 expression in GL261; type: cell-based, mouse; settings: GL261, 10 µM, 48 h
Description: GL261 cell was seeded at 2.5 × 10^4 cells per well in 24-well plates with culture medium supplemented with 10% FBS. After 24 h of incubation, the medium was changed to DMEM containing 10% FBS and 0.1%DMSO PBS, 300 μM temozolomide, 10 μM astaxanthin, or 10 μM adonixanthin was added for 6 and 48 h. Cells were lysed in a special buffer (RIPA buffer R0278; Sigma-Aldrich, St. Louis, MO, USA) with a protease inhibitor cocktail (Sigma-Aldrich), phosphatase inhibitor cocktails 2 and 3 (Sigma-Aldrich), and sample buffer (Wako, Osaka, Japan). The protein concentration was determined by comparison with a known concentration of bovine serum albumin using the BCA Protein Assay Kit (Thermo Fisher Scientific). The amount of total protein was 2 μg. […] The band intensity was […] using an Immuno Star LD (Wako). Band intensity was measured using an LAS-4000 UV mini Luminescent Image Analyzer (Fujifilm, Tokyo Japan) and Multi Gauge Version 3.0 (Fujifilm). The phosphorylation of ERK1/2, Akt, and p38 MAPK was measured by normalizing against total ERK1/2, total Akt, and total p38 MAPK. […]

[1] = test system: intracellular ROS in GL261 cells; experiment: Reactive oxygen species assay (CM-H2DCFDA); type: cell-based, mouse; settings: GL261, 1 and 10 µM, 6 h
Description: Intracellular radical activation within GL261 cells was measured with 5-(and-6)-chloromethyl—2′,7′-dichlorodihydrofluorescein diacetate, acetyl ester (CM-H2DCFDA; Thermo Fisher Scientific, MA, USA). Six hours after treatment of temozolomide, astaxanthin, or adonixanthin, CM-H2DCFDA was added to the culture medium and incubated at 37 °C for 1 h under shading in GL261. Fluorescence was measured using a Varioscan Flash 2.4 microplate reader (Thermo Fisher Scientific, MA, USA) at 485 (excitation)-535 nm (emission). Measurements were performed 0, 30, and 60 min after the addition of CM-H2DCFDA.

[2] = test system: GL261 cells (intracranial injection); experiment: Murine orthotopic glioblastoma model; type: in vivo, mouse; settings: oral 10 and 30 mg/kg for 10 days, 2 weeks after GL261 cell injection
Description: Murine glioblastoma cell (GL261) transplantation was performed as previously described. Briefly, mice received an intracranial injection of 1 × 10^5 cells in 2 µL of PBS using a Hamilton microliter syringe at the following coordinates: 1 mm anterior, 2 mm lateral (left of middle) to bregma, at a depth of 3 mm from the dural surface. This protocol was completed using a stereotactic frame. In the experiment of the murine orthotopic glioblastoma model, oral administration of each astaxanthin (10 and 30 mg/kg) and adonixanthin (10 and 30 mg/kg) was initiated 3 days after intracranial injection of GL261 cells and was continued for 10 days. In the experiment of the brain tissue absorption with oral astaxanthin or adonixanthin, after one week of adaptation, ICR mice were randomly divided into the following three groups: control group, astaxanthin group (50 mg/kg), and adonixanthin group (50 mg/kg). Mice were orally administered each reagent suspended in olive oil (5 mL/kg) by the daily single dose for 10 days. The control group was treated by olive oil alone (5 mL/kg). Mice were euthanized and […] perfused with cold saline for 2 min at room temperature. […] Pictures were taken using an All-in-One Fluorescence Microscope (BZ-X710; Keyence, Osaka, Japan). We assessed the maximum cross-sectional area of the tumour and tumour volume as described previously.

[3] = Body weight of mice during administration; type: in vivo, mouse
Description: In the experiment of the murine orthotopic glioblastoma model, oral administration of each astaxanthin (10 and 30 mg/kg) and adonixanthin (10 and 30 mg/kg) was initiated 3 days after intracranial injection of GL261 cells and was continued for 10 days. In the experiment of the brain tissue absorption with oral astaxanthin or adonixanthin, after one week of adaptation, ICR mice were randomly divided into the following three groups: control group, astaxanthin group (50 mg/kg), and adonixanthin group (50 mg/kg). Mice were orally administered each reagent suspended in olive oil (5 mL/kg) by the daily single dose for 10 days. The control group was treated by olive oil alone (5 mL/kg).

SMILES	BrdU-positive cell rate (GL261 cells) [%]	MMP-2 expression (MMP-2)	amount of intracellular ROS [1]	tumour enlargement (tumour area and volume) [2]	changes in body weight ([3]; 10 days of administration)	body weight of treated mice ([3]; after 10 days of administration, vehicle 34.72 ± 2.05 g) [g]
CC1=C(/C=C/C(C)=C/C=C/C(C)=C/C=C/C=C(C)/C=C/C=C(C)/C=C/C2=C(C)C(=O)[C@@H](O)CC2(C)C)C(C)(C)C[C@H](O)C1 [Adonixanthin, adonixanthin]	41.31 ± 1.51	decreased	decreased	significantly suppressed tumour enlargement		
CC1=C(/C=C/C(C)=C/C=C/C(C)=C/C=C/C=C(C)/C=C/C=C(C)/C=C/C2=C(C)C(=O)[C@@H](O)CC2(C)C)C(C)(C)C[C@H](O)C1=O [Astaxanthin, astaxanthin]	49.13 ± 2.66	decreased	decreased	significantly suppressed tumour enlargement	No significant changes	35.50 ± 1.95
